Results as given in patent US5474988A, “5-phenylpyrrolo-1,4-benzoxazine and 5-phenylpyrrolo-1,4-benzothiazine compounds, process and intermediates for their production and pharmaceutical compositions containing them” (Kali-Chemie Pharma GmbH, priority 1993, dated 1995).

Tests used:
male mice = details: mouse, in vivo, po, 1440 min
Experimental: 2. Determination of the minimum toxic dose.
Maximum doses of 300 mg/kg of the test substance were administered orally to male mice each weighing 20-25 g. The animals were carefully observed for symptoms of toxicity for 3 hours. All symptoms and deaths were additionally recorded over a period of 24 hours after administration. Associated symptoms were likewise observed and recorded. If death or severely toxic symptoms were observed, increasingly lower doses were administered to further mice. The lowest dose which caused death or severely toxic symptoms is indicated as the minimum toxic dose in the following Table B: […]

[1] = tested on: cutaneous histamine induced anaphylactoid reactions; assay: inhibition of the anaphylactoid cutaneous reaction induced by histamine; assay type: in vivo, Sprague-Dawley rats; details: Rattus norvegicus, po, 0.5 h; 2 × 10^-5 mole/kg p.o., one hour before histamine; assessed 30 minutes after provocation; read-out: Inhibitory action against cutaneous histamine induced anaphylactoid reactions in rats, % inhibition
Experimental: 1. Determination of the inhibition of the anaphylactoid cutaneous reaction induced by histamine.
The inhibition of the anaphylactoid cutaneous reaction induced by histamine was determined in Sprague-Dawley rats having body weights of 150-180 g.
In order to determine the histamine-induced anaphylactoid skin reaction, 50 μl of a physiological saline solution containing 0.8 mg/ml of histamine were injected into the animals intradermally on one flank. Immediately afterward, a solution of 26.4 mg/kg of a blue dye (Evan's Blue) was administered i.v. to the animals.
The test substances were dissolved in distilled water which contains 1% by volume of dimethylformamide and 1% by volume of Tween®20 (=polyoxyethylene(20) sorbitan monolaurate). One hour before the histamine injection, each animal received 2×10^-5 mol/kg of test substance, in each case administered orally in 0.5 ml of solution. A control group received only the solvent for comparison.
The histamine-induced anaphylactoid reactions which manifested themselves by edema formation, swelling and exudation of blue dye are assessed 30 minutes after provocation by the histamine injection. This is carried out by visual determination of the extent of the exudation of blue dye at the sites of edema formation. With the aid of comparison scales, the percentage inhibition of the anaphylactoid reactions produced by the test substances is determined in comparison with the reactions of the control animals not treated with test substance.
The results obtained with compounds of the formula I by the above test method are reproduced in the following table A. The example numbers given as identifiers for the compounds of formula I refer to the subsequent preparative examples.

5-lipoxygenase = assay: inhibition of 5-lipoxygenase activity in polymorphonuclear rat leucocytes (LTB4 formation); assay type: cell-based; details: 10^-5 mol/l; 22° C.
Outline: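 Thioglycolate-elicited peritoneal PMNs from male Sprague-Dawley rats (0.5×10^6 cells) preincubated 15 min at 22 °C with 10 μM compound in HEPES-buffered HBSS, then stimulated with 5 μM calcimycin for 10 min. LTB4 quantified by reverse-phase HPLC at 270 nm; % inhibition versus solvent control.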

[2] = tested on: P.A.F.-induced aggregation of blood platelets; assay: anti-P.A.F. action in vitro (P.A.F.-induced platelet aggregation); assay type: cell-based; details: Oryctolagus cuniculus, 10^-5 mole/liter, read-out: Anti-P.A.F. activity in vitro, % inhibition of the P.A.F.-induced aggregation of blood platelets from rabbit blood
Outline: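 Washed rabbit platelets (4×10^9/ml stock suspension, aspirin-lysine treated) in modified Tyrode buffer pH 7.4 with 1.3 mM CaCl2 and gelatine; test substance at 10^-5 mol/l final, 90 s preincubation before P.A.F. Aggregation followed 4-5 min by aggregometer; % inhibition of P.A.F.-induced aggregation increase calculated.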

Cc1ccnc(N2CCN(CCC3Cn4c(-c5ccc(O)cc5)c(C)c5c(Cl)ccc(c54)O3)CC2)c1 (stereo not shown) [Example 19]
Minimum toxic dose (male mice): > 300 mg/kg | inhibition in vivo at 20 µmol/kg [1]: 45% | In vitro inhibitory activity on LTB4 formation in rat PMNs stimulated by calcium ionophore A23187 (5-lipoxygenase): 45% | inhibition at 10 µM [2]: 71%
